Experimental data as given in patent US6500803B1, “Factor VIIa inhibitors” (Aventis Pharma Deutschland GmbH, priority 1999, dated 2002).

Molecular target: T1, factor VIIa/tissue factor (Homo sapiens, UniProt P08709)
T1 construct: human factor VIIa and TF (5 nM and 10 nM, respective final concentration)
Experiment: Factor VIIa (FVIIa) chromogenic assay
Type: biochemical
Settings: human factor VIIa 5 nM and TF 10 nM, chromogenic substrate S-2288 500 μM, 15 min preincubation, 25° C., pH 8.15
Method: The ability of compounds of formula I to inhibit factor VIIa or other enzymes like factor Xa, thrombin, plasmin, or trypsin can be assessed by determining the concentration of the compound of formula I that inhibits enzyme activity by 50%, i.e., the IC50 value, which is related to the inhibition constant Ki. Purified enzymes are used in chromogenic assays. The concentration of inhibitor that causes a 50% decrease in the rate of substrate hydrolysis is determined by linear regression after plotting the relative rates of hydrolysis (compared to the uninhibited control) versus the log of the concentration of the compound of formula I. For calculating the inhibition constant Ki, the IC50 value is corrected for competition with substrate using the formula: Ki=IC50/{1+(substrate concentration/Km)} wherein Km is the Michaelis-Menten constant (Chen and Prusoff, Biochem. Pharmacol. 22 (1973), 3099-3108; I. H. Segal, Enzyme Kinetics, John Wiley & Sons, New York (1975) 100-125; which are incorporated herein by reference).
a) Factor VIIa (FVIIa) Assay
The inhibitory activity (expressed as inhibition constant Ki (FVIIa)) of compounds of formula I towards factor VIIa/tissue factor activity was determined using a chromogenic assay essentially as described previously (J. A. Ostrem et al., Biochemistry 37 (1998) 1053-1059, which is incorporated herein by reference). Kinetic assays were conducted at 25° C. in half-area microtiter plates (Costar Corp., Cambridge, Mass.) using a kinetic plate reader (Molecular Devices Spectramax 250). A typical assay consisted of 25 μl of human factor VIIa and TF (5 nM and 10 nM, respective final concentration) combined with 40 μl of inhibitor dilutions in 10% DMSOFTBS-PEG buffer (50 mM Tris, 15 mM NaCl, 5 mM CaCl2, 0.05% PEG 8000, pH 8.15). Following a 15 min preincubation period, the assay was initiated by the addition of 35 μl of the chromogenic substrate S-2288 (D-Ile-Pro-Arg-p-nitroanilide, Pharmacia Hepar Inc., 500 μM final concentration).

T1 sequence (P08709 213-466 limits assumed): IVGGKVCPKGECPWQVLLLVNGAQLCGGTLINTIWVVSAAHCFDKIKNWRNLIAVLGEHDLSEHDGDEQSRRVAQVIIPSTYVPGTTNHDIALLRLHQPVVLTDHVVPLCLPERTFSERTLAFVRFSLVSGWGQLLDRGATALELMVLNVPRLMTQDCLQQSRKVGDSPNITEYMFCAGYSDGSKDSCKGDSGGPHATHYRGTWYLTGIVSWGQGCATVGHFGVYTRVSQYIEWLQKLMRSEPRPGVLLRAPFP
T1 sequence (P08709 61-212 limits assumed): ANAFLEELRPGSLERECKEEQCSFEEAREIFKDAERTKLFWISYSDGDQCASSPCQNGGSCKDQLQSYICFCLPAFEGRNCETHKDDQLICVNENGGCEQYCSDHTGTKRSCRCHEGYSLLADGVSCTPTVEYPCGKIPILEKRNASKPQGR
T1 sequence (P13726 33-295 partner): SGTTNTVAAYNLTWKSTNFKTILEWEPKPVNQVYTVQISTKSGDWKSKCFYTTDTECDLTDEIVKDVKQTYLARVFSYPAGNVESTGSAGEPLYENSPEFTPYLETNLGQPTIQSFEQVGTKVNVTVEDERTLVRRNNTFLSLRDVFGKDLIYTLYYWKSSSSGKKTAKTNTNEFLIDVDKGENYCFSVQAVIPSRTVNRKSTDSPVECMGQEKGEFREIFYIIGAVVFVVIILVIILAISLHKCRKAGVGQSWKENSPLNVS

| SMILES | Ki |
| --- | --- |
| C=CCOC(=O)N[C@@H](Cc1ccc(C(=N)N)cc1)C(=O)N[C@@H](CCC(=O)O)C(=O)NC1c2ccccc2-c2ccc(N)cc21 (mixture of isomers) [Example 6, Alloc-pAph-Glu-((RS)-2-amino-9H-fluorene-9-yl)amide] | 400 nM |
| C=CCOC(=O)N[C@@H](Cc1ccc(C(=N)N)cc1)C(=O)N[C@@H](CCC(=O)O)C(=O)NCc1ccc(N)cc1 [Example 1, Alloc-pAph-Glu-(4-aminobenzyl)amide] | 400 nM |
| C=CCOC(=O)N[C@@H](Cc1ccc(C(=N)N)cc1)C(=O)N[C@@H](CCC(=O)O)C(=O)NCCc1ccc(N)cc1 [Example 3, Alloc-pAph-Glu-(2-(4-aminophenyl)ethyl)amide] | 800 nM |
| C=CCOC(=O)NC(Cc1ccc(C(=N)N)cc1)C(=O)NC(CCC(=O)O)C(=O)NCc1ccc(O)cc1O (stereo not drawn) [Example 4, Alloc-pAph-Glu-(2,4-dihydroxybenzyl)amide] | 700 nM |
| C=CCOC(=O)N[C@@H](Cc1ccc(C(=N)N)cc1)C(=O)N[C@@H](CCC(=O)O)C(=O)NCc1ccccc1N [Example 5, Alloc-pAph-Glu-(2-aminobenzyl)amide] | 600 nM |
| C=CCOC(=O)N[C@@H](Cc1ccc(C(=N)N)cc1)C(=O)N[C@@H](CCC(=O)O)C(=O)NCCCNC(=O)OCC [Example 7, Alloc-pAph-Glu-(3-ethoxycarbonylaminopropyl)amide] | 800 nM |
| C=CCOC(=O)N[C@@H](Cc1ccc(C(=N)N)cc1)C(=O)N[C@@H](CCC(=O)O)C(=O)NCCCNS(=O)(=O)c1cc(Cl)cc(Cl)c1 [Example 10, Alloc-pAph-Glu-(3-(3,5-dichlorobenzenesulfonylamino)propyl)amide] | 680 nM |
| C=CCOC(=O)N[C@@H](Cc1ccc(C(=N)N)cc1)C(=O)N[C@@H](CCC(=O)O)C(=O)Nc1nc(CC(N)=O)cs1 [Example 12, Alloc-pAph-Glu-(4-carbamoylmethylthiazol-2-yl)amide] | 44100 nM |
| C=CCOC(=O)N[C@@H](Cc1ccc(C(=N)N)cc1)C(=O)N[C@@H](CCC(=O)O)C(=O)NCc1cnc(C)nc1N [Example 13, Alloc-pAph-Glu-(4-amino-2-methylpyrimidin-5-ylmethyl)amide] | 1900 nM |
| C=CCOC(=O)N[C@@H](Cc1ccc(C(=N)N)cc1)C(=O)N[C@@H](CCC(=O)O)C(=O)NCCCNS(=O)(=O)c1ccc(OC)cc1 [Example 28] | 280 nM |
| C=CCOC(=O)N[C@@H](Cc1ccc(C(=N)N)cc1)C(=O)N[C@@H](CCC(=O)O)C(=O)NC1CCN(S(=O)(=O)c2cccc(Br)c2)CC1 [Example 30] | 430 nM |
| C=CCOC(=O)N[C@@H](Cc1ccc(C(=N)N)cc1)C(=O)N[C@@H](CCC(=O)O)C(=O)NC1CCN(S(=O)(=O)c2cccc(C(F)(F)F)c2)CC1 [Example 31] | 640 nM |
| C=CCOC(=O)N[C@@H](Cc1ccc(C(=N)N)cc1)C(=O)N[C@@H](CCC(=O)O)C(=O)NC1CCN(S(=O)(=O)c2cccc(Cl)c2)CC1 [Example 32] | 560 nM |
| C=CCOC(=O)N[C@@H](Cc1ccc(C(=N)N)cc1)C(=O)N[C@@H](CCC(=O)O)C(=O)NCCCN [Example 38] | 3820 nM |

More lines, now with the values ahead:

| Ki | SMILES |
| --- | --- |
| 200 nM | C=CCOC(=O)N[C@@H](Cc1ccc(C(=N)N)cc1)C(=O)N[C@@H](CCC(=O)O)C(=O)NCc1cccc(N)c1 [Example 2, Alloc-pAph-Glu-(3-aminobenzyl)amide] |
| 800 nM | C=CCOC(=O)N[C@@H](Cc1ccc(C(=N)N)cc1)C(=O)N[C@@H](CCC(=O)O)C(=O)NCc1cccc(CNS(=O)(=O)c2ccc3ccccc3c2)c1 [Example 11, Alloc-pAph-Glu-(3-((naphthalene-2-sulfonylamino)methyl)benzyl)amide] |
| 3400 nM | C=CCOC(=O)N[C@@H](Cc1ccc(C(=N)N)cc1)C(=O)N[C@@H](CC(=O)O)C(=O)NCc1cccc(N)c1 [Example 14, Alloc-pAph-Asp-(3-aminobenzyl)amide] |
| 75700 nM | C=CCOC(=O)N[C@@H](Cc1ccc(C(=N)N)cc1)C(=O)N[C@@H](CCCC(=O)O)C(=O)NCc1cccc(N)c1 [Example 15, Alloc-pAph-2-Aad-(3-aminobenzyl)amide] |
| 1800 nM | C=CCOC(=O)N[C@@H](Cc1ccc(C(=N)N)cc1)C(=O)N[C@@H](CCC(=O)O)C(=O)NCc1cccc(CNS(=O)(=O)c2cccc3ccccc23)c1 [Example 18] |
| 680 nM | C=CCOC(=O)N[C@@H](Cc1ccc(C(=N)N)cc1)C(=O)N[C@@H](CCC(=O)O)C(=O)NCc1cccc(CNS(=O)(=O)c2ccc(OC)cc2)c1 [Example 19] |
| 2030 nM | C=CCOC(=O)N[C@@H](Cc1ccc(C(=N)N)cc1)C(=O)N[C@@H](CCC(=O)O)C(=O)NCc1cccc(CNS(C)(=O)=O)c1 [Example 20] |
| 620 nM | C=CCOC(=O)N[C@@H](Cc1ccc(C(=N)N)cc1)C(=O)N[C@@H](CCC(=O)O)C(=O)NCc1cccc(CNS(=O)(=O)N(C)C)c1 [Example 21] |
| 1460 nM | C=CCOC(=O)N[C@@H](Cc1ccc(C(=N)N)cc1)C(=O)N[C@@H](CCC(=O)O)C(=O)NCc1cccc(CNS(=O)(=O)C=Cc2ccccc2)c1 [Example 22] |
| 890 nM | C=CCOC(=O)N[C@@H](Cc1ccc(C(=N)N)cc1)C(=O)N[C@@H](CCC(=O)O)C(=O)NCc1cccc(CNS(=O)(=O)c2ccc(Cl)s2)c1 [Example 24] |
| 1880 nM | C=CCOC(=O)N[C@@H](Cc1ccc(C(=N)N)cc1)C(=O)N[C@@H](CCC(=O)O)C(=O)NCc1cccc(CNS(=O)(=O)c2ccc(F)cc2)c1 [Example 25] |
| 300 nM | C=CCOC(=O)N[C@@H](Cc1ccc(C(=N)N)cc1)C(=O)N[C@@H](CCC(=O)O)C(=O)NCCCNS(=O)(=O)c1cccc(Br)c1 [Example 26] |
| 3700 nM | C=CCOC(=O)N[C@@H](Cc1ccc(C(=N)N)cc1)C(=O)N[C@@H](CCC(=O)O)C(=O)NCc1cccc(CN)c1 [Example 37] |
